This is an account of results in patent US11008339B2, “Substituted pyrazole compounds containing pyrimidine and preparation method and use thereof” (Shenyang Sinochem Agrochemicals R&D Co., Ltd., priority 2015, dated 2021).

One data set has as its system wheat powdery mildew. Briefly: Protective activity in vivo (whole plant spray) against wheat powdery mildew. As to conditions: Triticum aestivum; 100 mg/L, comparative test (Table 130). How it is done: (§1) The method is as followed: The whole plant is used in this test. The compound is dissolved in a proper solvent to get mother solution. The proper solvent is selected from acetone, methanol, DMF and so on according to their dissolving capability to the sample. The volume rate of solvent and testing solution (v/v) is equal to or less than 5%. […] The testing solution is sprayed to the host plant by a special plant sprayer. The plant is inoculated with fungus after 24 hours. According to the infecting characteristic of fungus, the plant is stored in a humidity chamber and then transferred into greenhouse after infection is finished. And the other plants are placed in greenhouse directly.

The test system of the next data set is corn rust. Briefly: Protective activity in vivo (whole plant spray) against corn rust. As to conditions: comparative test (Table 131). How it is done:
as §1

In the next data set the test system is rice blast. Briefly: microbe, parasite or virus in culture. It counts as cell-based. As to conditions: Pyricularia oryzae, 24 h, read-out: inhibition rate against rice blast.
In the next data set the test system is carmine spider mite. Nature of the data set: Bioactivity test against carmine spider mite (airbrush spray). As to conditions: 600 mg/L, contrastive test (Table 135). The data set is classed as in vivo. On the procedure: (§2) Compounds were dissolved in mixed solvent (acetone:methanol=1:1), and diluted to required concentration with water containing 0.1% of tween 80.
(§3) Diamond back moth, armyworm, peach aphid and carmine spider mite were used as targets and the method of spraying by airbrush was used for determination of insecticidal biassays.
The method: Broadbean shoots with two true leaves in pot were taken, the healthy adults of carmine spider mite were inoculated to the leaves. The adults were counted and then sprayed with airbrush at the pressure of 0.7 kg/cm^2 and at dose of 0.5 ml. 3 replicates were set for each treatment. And then they were maintained in standard observation room. Scores were conducted and mortalities were calculated after 72 hrs.

For a further data set, the system named is cucumber anthracnose. Briefly: Protective activity in vivo (whole plant spray) against cucumber anthracnose. As to conditions: Cucumis sativus; 100 mg/L, comparative test (Table 132); read-out: protective activity (%) against cucumber anthracnose. On the procedure: as §1
Another data set concerns diamond back moth. Briefly: Bioactivity test against diamond back moth (airbrush spray, leaf disc). It counts as in vivo. As to conditions: 600 mg/L, contrastive test (Table 133). On the procedure:
as §2, §3
The method of spraying by airbrush: The cabbage leaves were made into plates of 2 cm diameter by use of punch. A test solution (0.5 ml) was sprayed by airbrush at the pressure of 0.7 kg/cm^2 to both sides of every plate. 10 Second instar larvae were put into the petri-dishes after the leaf disc air-dried and 3 replicates were set for each treatment. Then the insects were maintained in observation room (25° C., 60˜70% R.H.). Scores were conducted and mortalities were calculated after 72 h.

In data set [1] the test system is Green peach aphids (Myzus Persicae Sulzer). Nature of the data set: Bioactivity test against green peach aphid (airbrush foliar spray). The data set is classed as in vivo. As to conditions: 100 mg/L, contrastive test (Table 134). How it is done: as §2, §3
Method: Filter papers were put in culture dishes (Diameter=6 cm), and water was dripped on filter papers for preserving moisture. Green peach aphids (Myzus Persicae Sulzer) were maintained on cabbage. Leaves (Diameter=3 cm) of approximately 15-30 aphids were put in the culture dishes. Bioactivity tests were used the method of Airbrush Foliar Spray, pressure=10 psi (0.7 kg/cm2), spray volume=0.5 mL. The studies were conducted at […] 25±1 C in incubator cabinets with 60±5% RH. Survey the survival aphids after 48 h and calculate the death rates.

Another data set relates to cucumber gray mold. Nature of the data set: Fungicidal activity in vitro (96-well, inhibition rate) against cucumber gray mold. The data set is classed as cell-based. As to conditions: 24 hours.
The test system of a further data set is cucumber downy mildew. Briefly: Protective activity in vivo (whole plant spray) against cucumber downy mildew. As to conditions: Cucumis sativus, read-out: protective activity (%) against cucumber downy mildew. How it is done:
as §1

For orientation: melting point means the temperature of the solid-liquid transition.

Where two headings read alike, the source gives them in different places.

Turning to `Cc1cc(N(C)Cc2c(C)nn(-c3ccccc3)c2C)nc(C)n1` [CK5], the inhibition at 100 µg/mL with wheat powdery mildew and with cucumber anthracnose was 0% in each case. In addition, the “control effect against corn rust (%)” value is 60% in the data set on corn rust (25 mg/L) and 70% in the data set with corn rust (100 mg/L). The inhibition at 25 ppm in the data set on rice blast and in the data set with cucumber gray mold was 0% in each case. The “Insecticidal activity against carmine spider mite (%)” value with carmine spider mite was determined as 58%. Further, the “Insecticidal activity against diamond back moth (%)” value with diamond back moth is on record as 0%. In addition, in [1], the “Insecticidal activity against peach aphid (%)” value was 22%. Moreover, in the data set with cucumber downy mildew (25 mg/L, comparative test (Table 129)), the inhibition at 25 µg/mL worked out at 0%.

In the case of `Clc1ccccc1-n1ccc(OCCNc2ncnc3ccccc23)n1` [Compound 40-17], the melting point was 186.6 °C. In addition, the inhibition at 25 µg/mL in the data set on cucumber downy mildew amounted to 70%.
